This note sets out measurements from patent publication US9890147B2 (BAYER PHARMA AKTIENGESELLSCHAFT, priority 2012, dated 2018).

The target in one experiment is T1, BRD4 (BD1) (Homo sapiens, UniProt O60885).
T1 construct: with relatively long constructs also being possible, preferably amino acids 44-168; made in house; host or cells: E. coli
As to the kind of experiment: Binding assay BRD4/acetylated peptide H4 (TR-FRET protein-protein interaction assay). A digest of the protocol:
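Displacement of biotin-Ac-H4 peptide from His6-tagged BRD4(BD1), final usually 10 nM, read as Eu-streptavidin to anti-His-XL665 TR-FRET (665/620 nm). Compounds tested at 11 doses up to 20 μM in duplicate, pH 7.5 HEPES, 22 °C then 4 °C incubation; IC50 by 4-parameter regression.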
A general note: Time-resolved FRET reads energy transfer from a long-lived donor to a nearby acceptor.

Another experiment concerns MOLM-13 cells. As to the kind of experiment: Cell proliferation assay (alamarBlue), MOLM-13. The class given is cell-based. The settings on record: Homo sapiens, 96 hours incubation, inhibition of cell proliferation. The procedure:
In accordance with the invention, the capability of the substances to inhibit cell proliferation was determined Cell viability was determined using the alamarBlue® reagent (Invitrogen) in a Victor X3 Multilabel Reader (Perkin Elmer). The excitation wavelength was 530 nm and the emission wavelenth […].
The MOLM-13 cells (DSMZ, ACC 554) were sown at a concentration of 4000 cells/well in 100 μl growth medium (RPMI1640, 10% FCS) on 96-well microtitre plates.
After an overnight incubation at 37° C., the fluorescence values (CI values) were determined. The plates were then treated with various substance dilutions (1E-5 M, 3E-6 M, 1E-6M, 3E-7 M, 1E-7 M, 3E-8 M, 1E-8 M) and incubated at 37° C. for 72 (MV4-11-, LOX-IMVI cells), 96 (MOLM-13-, B16F10-, MDA-MB-431-, Caov-3 cells), 120 (MOLP-8-, KMS-12-PE cells) or 168 (LAPC-4 cells) hours. The fluorescence values (CO values) were then determined. For the data analysis, the CI values were subtracted from the CO values and the results were compared between cells treated with different dilutions of the substance or with buffer solution only. These were used to calculate the IC 50 values (substance concentration required for 50% inhibition of cell proliferation).

For the compound `CNC(=O)N1N=C(c2ccc(N3CCN(C)CC3)cc2)c2cc(OC)c(OC(F)F)cc2CC1C` (racemic) [Example 163, (±)-7-(difluoromethoxy)-8-methoxy-N,4-dimethyl-1-[4-(4-methylpiperazin-1-yl)phenyl]-4,5-dihydro-3H-2,3-benzodiazepine-3-carboxamide], the IC50 was 60 nM on BRD4 (BD1) and 210 nM with MOLM-13 cells.
For `CNC(=O)N1N=C(c2ccc(-c3cc(O)cc(F)c3)cc2)c2cc(OC)c(OC)cc2CC1C` (racemic) [Example 119, (±)-1-(3′-fluoro-5′-hydroxybiphenyl-4-yl)-7,8-dimethoxy-N,4-dimethyl-4,5-diliydro-3H-2,3-benzodiazepine-3-carboxamide] the same measures were 90 nM and 410 nM.
The corresponding values for `CNC(=O)N1N=C(c2ccc(-c3ccc(Cl)cc3)cc2)c2cc(OC)c(OC)cc2CC1C` (racemic) [Example 63, (±)-1-(4′-chlorobiphenyl-4-yl)-7,8-dimethoxy-N,4-dimethyl-4,5-dihydro-3H-2,3-benzodiazepine-3-carboxamide] are 170 nM and 770 nM.
The corresponding values for `CNC(=O)N1N=C(c2cccc(-c3c(C)noc3C)c2)c2cc(OC)c(OC)cc2CC1C` (racemic) [Example 31, (±)-1-[3-(3,5-Dimethylisoxazol-4-yl)phenyl]-7,8-dimethoxy-N,4-dimethyl-4,5-dihydro-3H-2,3-benzodiazepine-3-carboxamide] are 180 nM and 270 nM.
For the compound `CNC(=O)N1N=C(c2cccc(N3CCC3)c2)c2cc(OC)c(OC)cc2CC1C` (racemic) [Example 142, (±)-1-[3-(azetidin-1-yl)phenyl]-7,8-dimethoxy-N,4-dimethyl-4,5-dihydro-3H-2,3-benzodiazepine-3-carboxamide], the IC50 is 100 nM on BRD4 (BD1) and 680 nM in the experiment with MOLM-13 cells.
For `CNC(=O)N1N=C(c2ccc(-c3cccc([N+](=O)[O-])c3)cc2)c2cc(OC)c(OC)cc2CC1C` (racemic) [Example 59, (±)-7,8-dimethoxy-N,4-dimethyl-1-(3′-nitrobiphenyl-4-yl)-4,5-dihydro-3H-2,3-benzodiazepine-3-carboxamide] the same measures were 70 nM and 620 nM.
The corresponding values for `CNC(=O)N1N=C(c2ccc(-n3nc(C4CC4)cc3-c3ccccn3)cc2)c2cc(OC)ccc2C[C@@H]1C` [Example 29, (4S)-1-{4-[3-cyclopropyl-5-(pyridin-2-yl)-1H-pyrazol-1-yl]phenyl}-8-methoxy-N,4-dimethyl-4,5-dihydro-3H-2,3-benzodiazepine-3-carboxamide] are 130 nM and 360 nM.
For `CNC(=O)N1N=C(c2ccc(-n3nc(-c4ccccc4)cc3C(F)(F)F)cc2)c2cc(OC)c(OC)cc2CC1C` (racemic) [Example 149, (±)-7,8-dimethoxy-N,4-dimethyl-1-{4-[3-phenyl-5-(trifluoromethyl)-1H-pyrazol-1-yl]phenyl}-4,5-dihydro-3H-2,3-benzodiazepine-3-carboxamide] the same measures were 1620 nM and 3000 nM.
`CNC(=O)N1N=C(c2ccc(N3CCCCC3=O)cc2)c2cc(OC)c(OC)cc2CC1C` (racemic) [Example 35, (±)-7,8-dimethoxy-N,4-dimethyl-1-[4-(2-oxopiperidin-1-yl)phenyl]-4,5-dihydro-3H-2,3-benzodiazepine-3-carboxamide]: the IC50 is 220 nM on BRD4 (BD1) and 1470 nM in the experiment with MOLM-13 cells.
Take `CNC(=O)N1N=C(c2ccc(-c3cccc(S(N)(=O)=O)c3)cc2)c2cc(OC)c(OC)cc2CC1C` (racemic) [Example 114, (±)-7,8-dimethoxy-N,4-dimethyl-1-(3′-sulphamoylbiphenyl-4-yl)-4,5-dihydro-3H-2,3-benzodiazepine-3-carboxamide]: the IC50 on BRD4 (BD1) came out at 40 nM; with MOLM-13 cells it was 300 nM.
The corresponding values for `CNC(=O)N1N=C(c2ccc(Cl)cc2)c2cc(OCCCN3CCN(C)CC3)ccc2CC1C` (racemic) [Example 164, (±)-1-(4-chlorophenyl)-N,4-dimethyl-8-[3-(4-methylpiperazin-1-yl)propoxy]-4,5-dihydro-3H-2,3-benzodiazepine-3-carboxamide] are 60 nM and 580 nM.
For `CNC(=O)N1N=C(c2ccc(N3CCN(C(=O)C(C)(C)O)CC3)cc2)c2cc(OC)c(OC)cc2C[C@@H]1C` [Example 134.1, (4S)-1-{4-[4-(2-hydroxy-2-methylpropanoyl)piperazin-1-yl]phenyl}-7,8-dimethoxy-N,4-dimethyl-4,5-dihydro-3H-2,3-benzodiazepine-3-carboxamide] the same measures were 30 nM and 80 nM.
The corresponding values for `CNC(=O)N1N=C(c2ccc(Cl)cc2)c2cc(OCCN3CCN(C)CC3)ccc2CC1C` (racemic) [Example 166, (±)-1-(4-chlorophenyl)-N,4-dimethyl-8-[2-(4-methylpiperazin-1-yl)ethoxy]-4,5-dihydro-3H-2,3-benzodiazepine-3-carboxamide] are 270 nM and 670 nM.
For `CNC(=O)N1N=C(c2ccc(-c3cnccc3OC)cc2)c2cc(OC)c(OC)cc2CC1C` (racemic) [Example 104, (±)-7,8-dimethoxy-1-[4-(4-methoxypyridin-3-yl)phenyl]-N,4-dimethyl-4,5-dihydro-3H-2,3-benzodiazepine-3-carboxamide], the IC50 on BRD4 (BD1) came out at 30 nM; with MOLM-13 cells it was 260 nM.
The corresponding values for `CNC(=O)N1N=C(c2ccc(-c3c(C)nn(C)c3C)cc2)c2cc(OC(F)(F)F)ccc2C[C@@H]1C` [Example 249.1, (4S)-N,4-dimethyl-8-(trifluoromethoxy)-1-[4-(1,3,5-trimethyl-1H-pyrazol-4-yl)phenyl]-4,5-dihydro-3H-2,3-benzodiazepine-3-carboxamide] are 20 nM and 60 nM.
The corresponding values for `CNC(=O)N1N=C(c2ccc(N3CCN(C(C)=O)CC3)cc2)c2cc(OC)c(OC)cc2C[C@@H]1C` [Example 132.2, (4S)-1-[4-(4-acetylpiperazin-1-yl)phenyl]-7,8-dimethoxy-N,4-dimethyl-4,5-dihydro-3H-2,3-benzodiazepine-3-carboxamide] are 20 nM and 230 nM.
Regarding `CNC(=O)N1N=C(c2ccc(-c3ccc(OC)cc3)cc2)c2cc(OC)c(OC)cc2CC1C` (racemic) [Example 65, (±)-7,8-dimethoxy-1-(4′-methoxybiphenyl-4-yl)-N,4-dimethyl-4,5-dihydro-3H-2,3-benzodiazepine-3-carboxamide], the values for the IC50 at BRD4 (BD1) and in the experiment on MOLM-13 cells were 100 nM and 630 nM, respectively.
For `CNC(=O)N1N=C(c2ccc(F)c(N3CCOCC3)c2)c2cc(OC)c(OC)cc2CC1C` (racemic) [Example 144, (±)-1-[4-fluoro-3-(morpholin-4-yl)phenyl]-7,8-dimethoxy-N,4-dimethyl-4,5-dihydro-3H-2,3-benzodiazepine-3-carboxamide] the same measures were 190 nM and 960 nM.
For `CNC(=O)N1N=C(c2ccc(-c3c(C)noc3C)cc2)c2cc(OC(F)(F)F)c(Cl)cc2C[C@@H]1C` [Example 156.1, (4S)-7-Chloro-1-[4-(3,5-dimethylisoxazol-4-yl)phenyl]-N,4-dimethyl-8-(trifluoromethoxy)-4,5-dihydro-3H-2,3-benzodiazepine-3-carboxamide] the same measures were 330 nM and 560 nM.
The corresponding values for `CNC(=O)N1N=C(c2cccc(N3CCN(C)CC3)c2)c2cc(OC)c(OC)cc2CC1C` (racemic) [Example 143, (±)-7,8-dimethoxy-N,4-dimethyl-1-[3-(4-methylpiperazin-1-yl)phenyl]-4,5-dihydro 3H-2,3-benzodiazepine-3-carboxamide] are 170 nM and 840 nM.
Regarding `CNC(=O)N1N=C(c2ccc(N3CCC(N(C)C)CC3)cc2)c2cc(OC)c(OC)cc2CC1C` (racemic) [Example 180, (±)-1-{4-[4-(dimethylamino)piperidin-1-yl]phenyl}-7,8-dimethoxy-N,4-dimethyl-4,5-dihydro-3H-2,3-benzodiazepine-3-carboxamide], the IC50 on BRD4 (BD1) was determined as 70 nM; with MOLM-13 cells, 370 nM.
For `CNC(=O)N1N=C(c2ccc(-c3cccc(S(C)(=O)=O)c3)cc2)c2cc(OC)c(OC)cc2CC1C` (racemic) [Example 73, (±)-7,8-dimcthoxy-N,4-dimethyl-1-[3′-(methylsulphonyl)biphenyl-4-yl]-4,5-dihydro-3H-2,3-benzodiazepine-3-carboxamide] the same measures were 30 nM and 300 nM.
For `CNC(=O)N1N=C(c2ccc(N3CCC(O)CC3)cc2)c2cc(OC(F)(F)F)ccc2CC1C` (racemic) [Example 251, (±)-1-[4-(4-hydroxy-1-piperidinyl)phenyl]-N,4-dimethyl-8-(trifluoromethoxy)-4,5-dihydro-3H-2,3-benzodiazepine-3-carboxamide] the same measures were 30 nM and 100 nM.

As usually defined, the IC50 is the concentration needed to halve the response being measured. A lower IC50 goes with inhibition by little substance.
